{"source": "patent US20080070924A1", "about": "(priority 2003, published 2008)", "key": {"[1]": {"test_system": "ricinus oil-induced diarrhea", "settings": "in vivo; for effect on ricinus oil-induced diarrhea: sc"}, "charcoal propulsion [2]": {"test_system": "charcoal propulsion", "parameters": "species or system rats", "settings": "rat, in vivo"}, "[3]": {"test_system": "acetone-induced lifting behaviour", "test": "Tolerance in a chronic neuropathic pain model (CCI gerbils, acetone spray test)", "format": "in vivo"}, "[4]": {"test_system": "opioid-induced PCO2 increases", "settings": "in vivo"}, "[5]": {"test_system": "opioid-induced PCO2 increases", "settings": "guinea pig, in vivo"}, "[6]": {"test_system": "opioid-induced PCO2 increases", "settings": "rat, in vivo, sc"}, "[7]": {"test_system": "ricinus oil-induced diarrhea", "settings": "rat, in vivo"}, "charcoal propulsion [8]": {"test_system": "charcoal propulsion", "settings": "in vivo"}, "morphine-induced emesis": {"test_system": "morphine-induced emesis", "test": "Inhibition of morphine-induced emesis in ferrets"}, "[9]": {"test_system": "ricinus oil-induced diarrhea", "test": "whole plant or invertebrate", "settings": "in Meriones unguiculatus, sc, 8 h, read-out: ED50 of the opioid to postpone the ricinus oil-induced diarrhea"}}, "note": "Where two headings read alike, the source gives them in different places."}
{"molecule": "COc1ccc2c3c1O[C@H]1[C@@H](O)C=C[C@H]4[C@@H](C2)N(C)CC[C@@]341", "note": "[Codeine, codeine]", "values": [{"measurement": "effect on ricinus oil-induced diarrhea", "setting": "[1]", "result": "dose-dependent inhibition"}]}
{"molecule": "(+)-(B)-trans-4-[1-[3,5-bis(trifluoromethyl)benzoyl]-2-(phenylmethyl)-4-piperidinyl]-N-(2,6-dimethylphenyl)-1-piperazine acetamide (L)-malic acid (1:1) [Compound 95]", "values": [{"measurement": "charcoal test result in rats compared with gerbils", "setting": "charcoal propulsion [2]", "result": "comparable results"}, {"measurement": "acetone-induced lifting behaviour, given alone", "setting": "[3]; 2.5 mg/kg i.p. twice daily, 11 days, during some days of the experiment", "result": "limited activity"}, {"measurement": "activity over the testing period, combination with morphine", "setting": "[3]; 2.5 mg/kg morphine with 2.5 mg/kg Compound 95 i.p. twice daily, 11 days", "result": "the activity remained present over the entire testing period"}, {"measurement": "effect on PCO2, given alone", "setting": "[4]", "result": "no effects were observed"}, {"measurement": "effect on opioid-induced PCO2 levels", "setting": "[4]", "result": "significant decreases"}, {"measurement": "effect on PCO2, given alone", "setting": "[5]", "result": "did not affect PCO2 values"}, {"measurement": "effect on opioid-induced PCO2 levels", "setting": "[5]", "result": "reductions in the opioid-induced PCO2 levels"}, {"measurement": "effect on PCO2, given alone", "setting": "[6]; 40 mg/kg", "result": "did not affect the PCO2 levels"}, {"measurement": "effect on opioid-induced increases in PCO2", "setting": "[6]; 40 mg/kg", "result": "some attenuation"}, {"measurement": "number of animals reaching high (>50 mm Hg) levels of PCO2", "setting": "[6]; 40 mg/kg", "result": "especially reduced"}, {"measurement": "effect of adding to the opioids on their ED50s", "setting": "[1]", "result": "did not alter the ED50s of the opioids"}, {"measurement": "effects on constipation, given alone", "setting": "[1]", "result": "minimal effects"}, {"measurement": "effect of adding to the opioids on their ED50s", "setting": "[7]", "result": "did not alter the ED50s of the opioids"}, {"measurement": "effects on constipation, given alone", "setting": "[7]", "result": "minimal effects"}, {"measurement": "effect of adding to the opioids on charcoal propulsion", "setting": "charcoal propulsion [8]", "result": "did not affect the outcome of the opioids"}, {"measurement": "effect on charcoal propulsion, given alone", "setting": "charcoal propulsion [8]", "result": "inactive"}, {"measurement": "frequency of retches, vomiting and periods of emesis", "setting": "morphine-induced emesis; at 0.4 mg/kg morphine", "result": "non-significant tendency"}, {"measurement": "number (frequency) of vomits", "setting": "morphine-induced emesis; at 0.8 mg/kg morphine, 10 mg/kg Compound 95 i.p.", "result": "diminished significantly"}, {"measurement": "number of retches", "setting": "morphine-induced emesis; at 0.8 mg/kg morphine, 10 and 40 mg/kg i.p. Compound 95", "result": "significantly reduced"}]}
{"molecule": "CN1CC[C@]23c4c5ccc(O)c4O[C@H]2[C@@H](O)C=C[C@H]3[C@H]1C5", "note": "[Morphine, morphine]", "values": [{"measurement": "charcoal test result in rats compared with gerbils", "setting": "charcoal propulsion [2]", "result": "comparable results"}, {"measurement": "acetone-induced lifting behaviour, acute effect", "setting": "[3]; 2.5 mg/kg i.p. twice daily", "result": "acutely reduced"}, {"measurement": "acetone-induced lifting behaviour at day 7", "setting": "[3]; 2.5 mg/kg i.p. twice daily, reductions of activity from the second day onwards", "result": "no differences with the controls"}, {"measurement": "PCO2 after opioid", "setting": "[5]; sc", "result": "increase in PCO2"}, {"measurement": "PCO2 after opioid", "setting": "[6]", "result": "increased levels of PCO2"}, {"measurement": "effect on ricinus oil-induced diarrhea", "setting": "[1]", "result": "dose-dependent inhibition"}, {"measurement": "effect on ricinus oil-induced diarrhea", "setting": "[7]; sc", "result": "dose-dependent inhibition"}, {"measurement": "ED50", "setting": "[9]", "result": 0.72, "unit": "mg/kg"}, {"measurement": "doses causing central side-effects", "setting": "morphine-induced emesis; i.p.", "result": "> 0.8", "unit": "mg/kg"}, {"measurement": "emesis on increasing the dose from 0.4 to 0.8 mg/kg", "setting": "morphine-induced emesis; i.p.", "result": "more animals with emesis and increased frequencies of periods of emesis, retches and vomiting"}]}
{"molecule": "COc1ccc2c3c1O[C@H]1C(=O)CC[C@@]4(O)[C@@H](C2)N(C)CC[C@]314", "note": "[Oxycodone, oxycodone]", "values": [{"measurement": "effect on ricinus oil-induced diarrhea", "setting": "[1]", "result": "dose-dependent inhibition"}, {"measurement": "ED50", "setting": "[9]", "result": 5.02, "unit": "mg/kg"}]}
